Columns and labels:
[1] = biological target: T1, His-BIR3 (241-356, XIAP) (Homo sapiens, UniProt P98170); experiment: XIAP-BIR3/SMAC Homogeneous Time Resolved Fluorescence (HTRF) Assay; format: binding; conditions: Table 4
T1 construct: additions of His-BIR3 (241-356, XIAP), fluorescein labeled SMAC peptide

[2] = biological target: T2, His-BIR2-3 (125-356, C202A/C213G, XIAP) (Homo sapiens, UniProt P98170, C202A/C213G); experiment: XIAP-BIR2-3 Dimeric SMAC Peptide Homogeneous Time Resolved Fluorescence (HTRF) Assay; format: binding; conditions: XIAP BIR2-3, HTRF, Table 4
T2 construct: additions of His-BIR2-3 (125-356, C202A/C213G, XIAP), fluorescein labeled dimeric SMAC peptide
T2 sequence (P98170 125-356 C202A/C213G): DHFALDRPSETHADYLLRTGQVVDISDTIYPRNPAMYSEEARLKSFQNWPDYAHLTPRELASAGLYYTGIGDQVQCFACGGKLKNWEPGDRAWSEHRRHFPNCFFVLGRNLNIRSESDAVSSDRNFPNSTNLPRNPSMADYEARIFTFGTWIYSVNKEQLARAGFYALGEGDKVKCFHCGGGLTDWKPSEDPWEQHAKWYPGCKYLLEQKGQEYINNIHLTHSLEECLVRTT

T1 sequence (P98170 241-356): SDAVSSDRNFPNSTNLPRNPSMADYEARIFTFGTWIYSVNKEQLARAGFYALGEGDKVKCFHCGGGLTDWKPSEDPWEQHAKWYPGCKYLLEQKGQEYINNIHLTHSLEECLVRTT

IC50 [1] [nM]	IC50 [2] [nM]	Structure (SMILES)
< 10	1 to 10	CN[C@@H](C)C(=O)N[C@H](C(=O)N1C[C@@H]2C[C@H]1C(=O)N[C@@H](Cc1ccc3ccccc3c1)C(=O)N[C@H](C(=O)O)Cc1ccc(cc1)OCc1cn(nn1)[C@H]1C[C@@H](C(=O)N[C@@H](Cc3ccc4ccccc4c3)C(=O)N[C@H](C(=O)O)Cc3ccc(cc3)OCc3cn2nn3)N(C(=O)[C@@H](NC(=O)[C@H](C)NC)C23CC4CC(CC(O)(C4)C2)C3)C1)C12CC3CC(CC(O)(C3)C1)C2 [Compound 1009]
< 10	≤ 1	CN[C@@H](C)C(=O)N[C@H](C(=O)N1C[C@@H]2C[C@H]1C(=O)N[C@@H](Cc1ccc3ccccc3c1)C(=O)N[C@H](C(=O)O)Cc1ccc(cc1)OCc1cn(nn1)[C@H]1C[C@@H](C(=O)N[C@@H](Cc3ccc4ccccc4c3)C(=O)N[C@H](C(=O)O)Cc3ccc(cc3)NC(=O)CCc3cn2nn3)N(C(=O)[C@@H](NC(=O)[C@H](C)NC)C(C)(C)C)C1)C(C)(C)C [Compound 1016]
< 10	≤ 1	CN[C@@H](C)C(=O)N[C@H](C(=O)N1C[C@@H]2C[C@H]1C(=O)N[C@@H](Cc1ccc3ccccc3c1)C(=O)N[C@H](C(=O)O)Cc1ccc(cc1)OCc1cn(nn1)[C@H]1C[C@@H](C(=O)N[C@@H](Cc3ccc4ccccc4c3)C(=O)N[C@H](C(=O)O)Cc3ccc(cc3)OCCc3cn2nn3)N(C(=O)[C@@H](NC(=O)[C@H](C)NC)C(C)(C)C)C1)C(C)(C)C [Compound 1017]
< 10	1 to 10	CN[C@@H](C)C(=O)N[C@H](C(=O)N1C[C@@H]2C[C@H]1C(=O)N[C@@H](Cc1ccc3ccccc3c1)C(=O)N[C@H](C(=O)O)Cc1ccc(cc1)OCc1cn(nn1)[C@H]1C[C@@H](C(=O)N[C@@H](Cc3ccc4ccccc4c3)C(=O)N[C@H](C(=O)NCC(=O)O)Cc3ccc(cc3)OCc3cn2nn3)N(C(=O)[C@@H](NC(=O)[C@H](C)NC)C(C)(C)C)C1)C(C)(C)C [Compound 1018]
10 to 100	1 to 10	CN[C@@H](C)C(=O)N[C@H](C(=O)N1C[C@@H]2C[C@H]1C(=O)N[C@@H](Cc1ccc3ccccc3c1)C(=O)N[C@H](C(=O)O)Cc1ccc(cc1)OCc1cn(nn1)[C@H]1C[C@@H](C(=O)N[C@@H](Cc3ccc4ccccc4c3)C(=O)N[C@H](C(=O)N(C)CC(=O)O)Cc3ccc(cc3)OCc3cn2nn3)N(C(=O)[C@@H](NC(=O)[C@H](C)NC)C(C)(C)C)C1)C(C)(C)C [Compound 1020]
< 10	1 to 10	CN[C@@H](C)C(=O)N[C@H](C(=O)N1C[C@@H]2C[C@H]1C(=O)N[C@@H](Cc1ccc3ccccc3c1)C(=O)N[C@H](C(=O)O)Cc1ccc(cc1)OCc1cn(nn1)[C@H]1C[C@@H](C(=O)N[C@@H](Cc3ccc4ccccc4c3)C(=O)N[C@H](C(=O)NCc3cccc(-c4nnn[nH]4)c3)Cc3ccc(cc3)OCc3cn2nn3)N(C(=O)[C@@H](NC(=O)[C@H](C)NC)C(C)(C)C)C1)C(C)(C)C [Compound 1025]
10 to 100	1 to 10	CN[C@@H](C)C(=O)N[C@H](C(=O)N1C[C@@H]2C[C@H]1C(=O)N[C@@H](Cc1ccc3ccccc3c1)C(=O)N[C@H](C(=O)O)Cc1ccc(cc1)OCc1cn(nn1)[C@H]1C[C@@H](C(=O)N[C@@H](Cc3ccc4ccccc4c3)C(=O)N[C@H](C(=O)N3CC(C(=O)O)C3)Cc3ccc(cc3)OCc3cn2nn3)N(C(=O)[C@@H](NC(=O)[C@H](C)NC)C(C)(C)C)C1)C(C)(C)C [Compound 1026]

Further lines, the molecule ahead of its results:

Structure (SMILES)	IC50 [1] [nM]	IC50 [2] [nM]
CN[C@@H](C)C(=O)N[C@H](C(=O)N1C[C@@H]2C[C@H]1C(=O)N[C@@H](Cc1ccc3ccccc3c1)C(=O)N[C@H](C(=O)O)Cc1ccc(cc1)OCc1cn(nn1)[C@H]1C[C@@H](C(=O)N[C@@H](Cc3ccc4ccccc4c3)C(=O)N[C@H](C(=O)OC)Cc3ccc(cc3)OCc3cn2nn3)N(C(=O)[C@@H](NC(=O)[C@H](C)NC)C(C)(C)C)C1)C(C)(C)C [Compound 1001]	> 100	> 10
CN[C@@H](C)C(=O)N[C@H](C(=O)N1C[C@@H]2C[C@H]1C(=O)N[C@@H](Cc1ccc3ccccc3c1)C(=O)N[C@H](C(=O)O)Cc1ccc(cc1)OCc1cn(nn1)[C@H]1C[C@@H](C(=O)N[C@@H](Cc3ccc4ccccc4c3)C(=O)N[C@H](C(=O)O)Cc3ccc(cc3)OCc3cn2nn3)N(C(=O)[C@@H](NC(=O)[C@H](C)NC)C23CC4CC(CC(C4)C2)C3)C1)C12CC3CC(CC(C3)C1)C2 [Compound 1008]	10 to 100	≤ 1
CN[C@@H](C)C(=O)N[C@H](C(=O)N1C[C@@H]2C[C@H]1C(=O)N[C@@H](Cc1ccc3ccccc3c1)C(=O)N[C@H](C(=O)O)Cc1ccc(cc1)OCCCc1cn(nn1)[C@H]1C[C@@H](C(=O)N[C@@H](Cc3ccc4ccccc4c3)C(=O)N[C@H](C(=O)O)Cc3ccc(cc3)OCCCc3cn2nn3)N(C(=O)[C@@H](NC(=O)[C@H](C)NC)C(C)(C)C)C1)C(C)(C)C [Compound 1011]	< 10	1 to 10
CN[C@@H](C)C(=O)N[C@H](C(=O)N1C[C@@H]2C[C@H]1C(=O)N[C@@H](Cc1ccc3ccccc3c1)C(=O)N[C@H](C(=O)O)Cc1ccc(cc1)NC(=O)CCc1cn(nn1)[C@H]1C[C@@H](C(=O)N[C@@H](Cc3ccc4ccccc4c3)C(=O)N[C@H](C(=O)O)Cc3ccc(cc3)NC(=O)CCc3cn2nn3)N(C(=O)[C@@H](NC(=O)[C@H](C)NC)C(C)(C)C)C1)C(C)(C)C [Compound 1012]	< 10	1 to 10
CNC(C)C(=O)NC(C(=O)N1CC2CC1C(=O)NC(Cc1ccc3ccccc3c1)C(=O)NC(C(=O)O)Cc1ccc(cc1)OCc1cn(nn1)C1CC(C(=O)NC(Cc3ccc4ccccc4c3)C(=O)NC(C(=O)O)c3ccc(cc3)OCc3cn2nn3)N(C(=O)C(NC(=O)C(C)NC)C(C)(C)C)C1)C(C)(C)C (stereo not drawn) [Compound 1013]	< 10	≤ 1
CN[C@@H](C)C(=O)N[C@H](C(=O)N1C[C@@H]2C[C@H]1C(=O)N[C@@H](Cc1ccc3ccccc3c1)C(=O)N[C@H](C(=O)O)Cc1ccc(cc1)NC(=O)c1cn(nn1)[C@H]1C[C@@H](C(=O)N[C@@H](Cc3ccc4ccccc4c3)C(=O)N[C@H](C(=O)O)Cc3ccc(cc3)OCc3cn2nn3)N(C(=O)[C@@H](NC(=O)[C@H](C)NC)C(C)(C)C)C1)C(C)(C)C [Compound 1014]	< 10	≤ 1
CN[C@@H](C)C(=O)N[C@H](C(=O)N1C[C@@H]2C[C@H]1C(=O)N[C@@H](Cc1ccc3ccccc3c1)C(=O)N[C@H](C(=O)O)Cc1ccc(cc1)-c1cn(nn1)[C@H]1C[C@@H](C(=O)N[C@@H](Cc3ccc4ccccc4c3)C(=O)N[C@H](C(=O)O)Cc3ccc(cc3)OCc3cn2nn3)N(C(=O)[C@@H](NC(=O)[C@H](C)NC)C(C)(C)C)C1)C(C)(C)C [Compound 1015]	10 to 100	1 to 10
CN[C@@H](C)C(=O)N[C@H](C(=O)N1C[C@@H]2C[C@H]1C(=O)N[C@@H](Cc1ccc3ccccc3c1)C(=O)N[C@H](C(=O)O)Cc1ccc(cc1)OCc1cn(nn1)[C@H]1C[C@@H](C(=O)N[C@@H](Cc3ccc4ccccc4c3)C(=O)N[C@H](C(=O)NCCC(=O)O)Cc3ccc(cc3)OCc3cn2nn3)N(C(=O)[C@@H](NC(=O)[C@H](C)NC)C(C)(C)C)C1)C(C)(C)C [Compound 1019]	< 10	1 to 10
CN[C@@H](C)C(=O)N[C@H](C(=O)N1C[C@@H]2C[C@H]1C(=O)N[C@@H](Cc1ccc3ccccc3c1)C(=O)N[C@H](C(=O)O)Cc1ccc(cc1)OCc1cn(nn1)[C@H]1C[C@@H](C(=O)N[C@@H](Cc3ccc4ccccc4c3)C(=O)N[C@H](C(=O)N3CCC(C(=O)O)C3)Cc3ccc(cc3)OCc3cn2nn3)N(C(=O)[C@@H](NC(=O)[C@H](C)NC)C(C)(C)C)C1)C(C)(C)C (stereo partly drawn) [Compound 1021]	< 10	1 to 10
CN[C@@H](C)C(=O)N[C@H](C(=O)N1C[C@@H]2C[C@H]1C(=O)N[C@@H](Cc1ccc3ccccc3c1)C(=O)N[C@H](C(=O)O)Cc1ccc(cc1)OCc1cn(nn1)[C@H]1C[C@@H](C(=O)N[C@@H](Cc3ccc4ccccc4c3)C(=O)N[C@H](C(=O)NCc3nnn[nH]3)Cc3ccc(cc3)OCc3cn2nn3)N(C(=O)[C@@H](NC(=O)[C@H](C)NC)C(C)(C)C)C1)C(C)(C)C [Compound 1022]	< 10	1 to 10
CN[C@@H](C)C(=O)N[C@H](C(=O)N1C[C@@H]2C[C@H]1C(=O)N[C@@H](Cc1ccc3ccccc3c1)C(=O)N[C@H](C(=O)O)Cc1ccc(cc1)OCc1cn(nn1)[C@H]1C[C@@H](C(=O)N[C@@H](Cc3ccc4ccccc4c3)C(=O)N[C@H](C(=O)NCc3ccc(-c4nnn[nH]4)cc3)Cc3ccc(cc3)OCc3cn2nn3)N(C(=O)[C@@H](NC(=O)[C@H](C)NC)C(C)(C)C)C1)C(C)(C)C [Compound 1023]	< 10	1 to 10
CN[C@@H](C)C(=O)N[C@H](C(=O)N1C[C@@H]2C[C@H]1C(=O)N[C@@H](Cc1ccc3ccccc3c1)C(=O)N[C@H](C(=O)O)Cc1ccc(cc1)OCc1cn(nn1)[C@H]1C[C@@H](C(=O)N[C@@H](Cc3ccc4ccccc4c3)C(=O)N[C@H](C(=O)N(C)C)Cc3ccc(cc3)OCc3cn2nn3)N(C(=O)[C@@H](NC(=O)[C@H](C)NC)C(C)(C)C)C1)C(C)(C)C [Compound 1024]	< 10	1 to 10
CN[C@@H](C)C(=O)N[C@H](C(=O)N1CCN2CCn3cc(nn3)C[C@@H](C(=O)O)NC(=O)[C@H](Cc3ccc4ccccc4c3)NC(=O)[C@@H]3CN(CCN3C(=O)[C@@H](NC(=O)[C@H](C)NC)C(C)(C)C)CCn3cc(nn3)C[C@@H](C(=O)O)NC(=O)[C@H](Cc3ccc4ccccc4c3)NC(=O)[C@@H]1C2)C(C)(C)C [Compound 1050]		> 10

Reference: patent US20140309265A1, “MACROCYCLIC COMPOUNDS FOR INHIBITION OF INHIBITORS OF APOPTOSIS” (Ensemble Therapeutics, priority 2011, published 2014)
